For one data set, the system named is myeloperoxidase activity. The note with it: both regimens of FIG. 6A; FIG. 8D. The text has this: (§1) Data for FIGS. 8A, 8B and 8C were generated as described for FIGS. 2C, 2D and 3C, respectively.
The subject of another data set is white blood cells. The note with it: normal rats; single dose 1 mg/kg at time 0 versus 0.1 mg/kg twice (time 0 and 3 hrs later); FIG. 9.
In data set [1] the test system is renal ischemia-reperfusion injury. The data set can be described thus: Kidney histology: injury score (hematoxylin/eosin) and TUNEL score after renal ischemia-reperfusion. It is filed as in vivo, rat. The procedure: Rats were dosed as described for Group 1 rats in FIG. 1A. […] FIGS. 2C and 2D show graphs of the Injury and TUNEL score, respectively. Injury was evaluated by scoring hematoxylin and eosin stained kidney sections on a scale of 1 to 4 for proteinaceous cast formation, cell exfoliation, vascular congestion and loss of tubular architecture. TUNEL staining was carried out on kidney sections to identify apoptotic cells that were then quantified by Metamorph analysis.
as §1

The test system is the same in data set [2]. The data set can be described thus: Microvascular permeability: rat IgG immunostaining of kidney and serum vWF ELISA after renal ischemia-reperfusion. Type of data set: in vivo.
From the text: Leakage of plasma proteins and secretion of von Willebrand Factor (vWF) are two indicators of the loss of microvascular integrity. FIGS. 3A and 3B are images of kidney tissue harvested 24 hrs after renal ischemia-reperfusion from subjects treated with the vehicle and AMD3465, respectively; tissue sections were immunostained with an antibody that recognizes rat immunoglobulin (IgG) and immunoreactivity quantified by Metamorph analysis illustrated in FIG. 3C. […] Renal ischemia-reperfusion rats that received AMD3465 represent Group 1 rats in FIG. 1A.
as §1
A general note: An ELISA detects its analyte on a solid surface through an enzyme-linked reagent.

The test system is the same in data set [3]. Nature of the data set: Renal function (creatinine, BUN) in rat model of renal ischemia-reperfusion injury. Type of data set: in vivo. The note with it: for effect on creatinine: FIG. 7B; for renal function loss / acute kidney injury: P≦0.05; for plasma creatinine: not significant (P>0.05), FIG. 5B; for creatinine levels: FIG. 1B. The protocol: This example illustrates the effect of multiple dosing strategies of AMD3465 in an in vivo rat model of renal ischemia-reperfusion injury in which the renal artery and vein of both kidneys were clamped for 45 minutes followed by removal of the clamps and reperfusion with blood. […] Group 1 follows this dosing regimen as illustrated in FIG. 1A. FIGS. 1B and 1C show creatinine and BUN levels in mg/dL of Group 1 subjects compared to subjects following different dosing strategies shown in FIG. 1A using 10 mg/kg. Also shown in FIG. 1A—Group 2 was dosed at −15 min and +2 hrs and +4 hrs and Group 3 at time 0 and +2 hrs.
FIG. 5A diagrams the dosing regimen timeline for groups 1 and 2. FIGS. 5B, 5C and 5D show the creatine (serum or plasma) and blood urea nitrogen levels of the AMD treated groups, vehicle treated and normal subjects. Dosing was carried out with two 1 mg/kg administrations (Group 1) or 5 mg/kg in a single dose (Group 2). […] FIG. 5C and FIG. 5D illustrate individual data points of each rat for plasma creatinine and blood urea nitrogen, respectively.
FIG. 6A illustrates the dosing regimen.
FIG. 7A illustrates the dosing regimen. Group 1 was administered 0.01 mg/kg both 15 minutes before and 3 hours after ischemia; Group 2 was administered 0.1 mg/kg at 15 minutes before.

The conditions of data set [4]: rat, in vivo. The procedure:
FIG. 4A provides body weight data of subjects administered vehicle, and subjects in Group 1 and Group 2 (Groups described in FIG. 1A). […] FIG. 4B gives white blood cell (WBC) counts at 24 hours of Group 1 and 2 subjects, subjects administered vehicle and normal subjects administered AMD3465.

Data set [5] has as its system IL-6/IL-10 mRNA expression. The note with it: Group 1 dosing.

“Also recorded” adds a separate entry of the source. Where two headings read alike, the source gives them in different places.

On to `c1cc(CN2CCCNCCNCCCNCC2)ccc1CN1CCCNCCNCCCNCC1` [AMD3100, 1,1′-[1,4-phenylene-bis(methylene)]-bis-1,4,8,11-tetraazacyclotetradecane], for which the “myeloperoxidase activity, a measure of neutrophilic infiltration into the kidney tissue” value in the data set on myeloperoxidase activity was “lowered myeloperoxidase activity”. Moreover, the “mobilization of white blood cells” value in the data set with white blood cells is given as “Comparable results”. Moreover, the TUNEL score result in data set [1] (regimen of FIG. 6A (0.1 mg/kg twice or 1.0 mg/kg once), FIG. 8B) was “significant effect”. In addition, the injury score result in data set [1] (regimen of FIG. 6A (0.1 mg/kg twice or 1.0 mg/kg once), compared to vehicle, FIG. 8A) was “lowered significantly”. Moreover, the “luminal IgG score” value in data set [2] (regimen of FIG. 6A (0.1 mg/kg twice or 1.0 mg/kg once), FIG. 8C) was “significant effect”. The effect on creatinine result in data set [3] (0.01 mg/kg both 15 minutes before and 3 hours after ischemia (Group 1, FIG. 7A)) is recorded as “less positive results”; in data set [3] (0.1 mg/kg at 15 minutes before ischemia (Group 2, FIG. 7A)), “comparable to that shown in FIG. 6B”. The “renal function loss / acute kidney injury” value in data set [3] (0.1 mg/kg 15 minutes prior to ischemia and 3 hrs later (Group 1, FIG. 6A)) was “therapeutically effective”; in data set [3] (1 mg/kg only at 15 minutes prior to ischemia (Group 2, FIG. 6A)), “therapeutically effective”. Besides, the “rats that demonstrated lower plasma creatinine (individual data points)” value in data set [3] (FIG. 5C, dosing of FIG. 5A) is “five”. For the same compound, the plasma creatinine levels result in data set [3] (regimens of FIG. 6A (0.1 mg/kg twice or 1 mg/kg once), FIG. 6B) is “reduction”. For the same compound, the BUN levels entry in data set [3] (regimens of FIG. 6A (0.1 mg/kg twice or 1 mg/kg once), FIG. 6C) is given as “reduction”. The “plasma BUN” value in data set [3] (regimens of FIG. 7A (0.01 mg/kg twice or 0.1 mg/kg once), FIG. 7C compared with FIG. 6C) is “only slightly less effective”. Besides, the plasma creatinine entry in data set [3] (single dose of 5 mg/kg (Group 2, FIG. 5A)) is given as “decrease”; in data set [3] (two doses of 1 mg/kg (Group 1, FIG. 5A)), “decrease”.

In the case of `c1ccc(CNCc2ccc(CN3CCCNCCNCCCNCC3)cc2)nc1` [AMD3465, N-[1,4,8,11-tetraazacyclotetradecanyl-1,4-phenylene-bis-(methylene)]-2-aminomethyl-pyridine], the body weight result in data set [4] is reported as “lost less body weight”. In addition, the tolerability entry in data set [4] is on record as “well tolerated”. Also, the “white blood cell (WBC) counts” value in data set [4] is on record as “comparable”. Also, the “structural integrity of the kidney” value in data set [1] (Group 1 dosing (10 mg/kg -15 min, +2 hrs), 24 hr post-reperfusion, vs vehicle, 10 mg/kg) is “maintained structural integrity; also recorded: remained intact”. Further, the “renal injury (Injury score)” value in data set [1] (Group 1 dosing (10 mg/kg -15 min, +2 hrs), 24 hr post-reperfusion, vs vehicle, FIG. 2C, 10 mg/kg) is listed as “decreasing renal injury; also recorded: significantly reduced”. For the same compound, in data set [1] (Group 1 dosing (10 mg/kg -15 min, +2 hrs), 24 hr post-reperfusion, vs vehicle, FIG. 2D, 10 mg/kg), the “cell death (TUNEL score)” value is given as “decreasing; also recorded: significantly reduced”. The “ratio of IL-6/IL-10 mRNA expression” value is “drops more drastically” in data set [5] (5 hrs post-reperfusion, compared to vehicle) and “has dropped” in data set [5] (24 hrs post-reperfusion). In addition, the “frequency of serum proteins measured by rat IgG in the renal tubular lumen” value in data set [2] (Group 1 dosing, kidney harvested 24 hrs after renal ischemia-reperfusion, vs vehicle, FIG. 3C) was “less”. Moreover, the “circulating levels of the cleaved form of von Willebrand factor (serum, ELISA)” value in data set [2] (Group 1 dosing, vs vehicle, FIG. 3D) is “lower”. In addition, the “loss of renal function based on levels of serum creatine and serum blood urea nitrogen (BUN)” value in data set [3] (10 mg/kg 15 min prior to ischemia and 2 hrs later (Group 1), 24 hrs after reperfusion) is on record as “ameliorated the loss of renal function”. Besides, the creatinine levels result in data set [3] (Group 1: 10 mg/kg at -15 min and +2 hrs, 24 hrs after reperfusion, P<0.05) is reported as “closest to normal”; in data set [3] (Group 2: 10 mg/kg at -15 min, +2 hrs and +4 hrs, 24 hrs after reperfusion), “closest to normal”. Moreover, the BUN levels result in data set [3] (Group 1: 10 mg/kg at -15 min and +2 hrs, 24 hrs after reperfusion, FIG. 1C, P<0.05) is given as “closest to normal”; in data set [3] (Group 2: 10 mg/kg at -15 min, +2 hrs and +4 hrs, 24 hrs after reperfusion, FIG. 1C) it was “closest to normal”.

Source of the values: patent US20110245265A1, “CXCR4 ANTAGONISTS FOR KIDNEY INJURY” (GENZYME CORPORATION, priority 2008, published 2011).
